Experiment [1] concerns sub-genomic HCV NS3-NS5B replicon of genotype 1b (ET subline) in Huh-7 cells. Briefly: Replicon Luciferase Cell Based Assay, genotype 1b. Further details: species or system HCV genotype 1b. Conditions: Hepatitis C virus, Huh-7, 48 h, read-out: Genotype 1b (IC50 μM). Here is the method:
(§1) A 10 mM stock solution in DMSO of each test compound was further diluted in DMSO in the first row of a 384-well, V-bottom microplate, to give 100 times the top concentration of the required dilution series. Dilutions of compound were prepared in 1:3 serial dilutions from the first row onwards robotically. A robot was also used to transfer 0.5 μL volumes from each dilution well into wells of white 384-well assay plates (Nunc #164610). Control wells received 0.5 μL of DMSO alone. Plates were made in duplicate for measuring HCV replication and cytotoxicity in the replicon cell lines.
(§2) Suspensions were prepared from cultures of Huh-7 cells stably transfected with sub-genomic HCV NS3—NS5B replicons of either genotype 1b (the ET subline described by Pietschmann, T., Lohmann, V., Kaul, A., Krieger, N., Rinck, G., Rutter, G., Strand, D. & Bartenschlager, R., Journal of Virology, 2002, 76, 4008-4021) or genotype 1a linked to a firefly luciferase reporter gene. Monolayers nearing confluency were stripped from growth flasks with versene-trypsin solution and the cells re-suspended in assay medium comprising DMEM (Invitrogen #11965-092) supplemented with 5% v/v foetal calf serum, 1% v/v non-essential amino acids solution, 100 units/ml penicillin, 100 μg/ml streptomycin and 2 mM GlutaMAX-1. 50 μL of suspension containing 5,000 cells of either genotype 1b or genotype 1a luciferase replicon were added to all wells, except medium controls, of the assay plate with a Multidrop Combi (Thermo Scientific Corporation) and the plate incubated for 48 hours at 37° C. in a 5% CO2 atmosphere. A solution of Steady-Glo cytolytic buffer/luciferase substrate (Promega #E2550) was prepared according to the manufacturer's instructions, and 20 μL were added to each well with a Multidrop Combi. To measure cytotoxicity, a solution of CellTiter-Glo Luminescent Cell Viability Assay reagent (Promega #G7573) was prepared according to the manufacturer's instructions, and 20 ul were added to each well with a Multidrop Combi. The plates were then read for luminescence on an Envision Multilabel Reader (Perkin Elmer)
(§3) Potency: The luminescence values from all compound-free wells containing cells were averaged to obtain a positive control value. The mean luminescence value from the compound-free wells that had received no cells was used to provide the negative (background) control value. After the subtraction of the mean background from all values, the readings from wells at each compound concentration were expressed as a percentage of the positive control signal. The quantifiable and specific reduction of luciferase signal in the presence of a drug is a direct measure of replicon inhibition. The BioAssay application and XC50 module were used to plot the curve of percentage inhibition against compound concentration and derive the 50% inhibitory concentration (IC50) for the compound.

Experiment [2] relates to sub-genomic HCV NS3-NS5B replicon of genotype 1a in Huh-7 cells. The experiment in a line: Replicon Luciferase Cell Based Assay, genotype 1a. Also on record: species or system HCV genotype 1a. Particulars: Hepatitis C virus, Huh-7, 48 hours. Here is the method:
as §1, §2, §3
(Replicon systems follow genome replication, usually without infectious particles.)

By IC50 is commonly meant the concentration needed to halve the response being measured. In the case of `COc1ccc2c(O[C@@H]3C[C@H]4C(=O)N[C@]5(C(=O)NS(=O)(=O)C6CC6)C[C@H]5/C=C\CCCCC[C@H](NC(=O)Nc5ccccc5)C(=O)N4C3)cc(-c3nc(C(C)C)cs3)nc2c1C` [Example 1, (2R,6S,13aS,14aR,16aS)-N-(cyclopropylsulfonyl)-2-{[8-methyl-2-[4-(1-methylethyl)-1,3-thiazol-2-yl]-7-(methyloxy)-4-quinolinyl]oxy}-5,16-dioxo-6-{[(phenylamino)carbonyl]amino}-1,2,3,6,7,8,9,10,11,13a,14,15,16,16a-tetradecahydrocyclopropa[e]pyrrolo[1,2-a][1,4]diazacyclopentadecine-14a(5H)-carboxamide], the IC50 in experiment [1] and in experiment [2] was less than 0.01 µM throughout.

For the compound `CCN(CC)C(=O)N[C@H]1CCCCC/C=C\[C@@H]2C[C@@]2(C(=O)NS(=O)(=O)C2CC2)NC(=O)[C@@H]2C[C@@H](Oc3cc(-c4nc(C(C)C)cs4)nc4c(C)c(OC)ccc34)CN2C1=O` [Example 2, (2R,6S,13aS,14aR,16aS)-N-(cyclopropylsulfonyl)-6-{[(diethylamino)carbonyl]amino}-2-{[8-methyl-2-[4-(1-methylethyl)-1,3-thiazol-2-yl]-7-(methyloxy)-4-quinolinyl]oxy}-5,16-dioxo-1,2,3,6,7,8,9,10,11,13a,14,15,16,16a-tetradecahydrocyclopropa[e]pyrrolo[1,2-a][1,4]diazacyclopentadecine-14a(5H)-carboxamide], the IC50 in experiment [1] and in experiment [2] was less than 0.01 µM each time.

In the case of `COc1ccc2c(O[C@@H]3C[C@H]4C(=O)N[C@]5(C(=O)NS(=O)(=O)C6CC6)C[C@H]5/C=C\CCCCC[C@H](NC(N)=O)C(=O)N4C3)cc(-c3nc(C(C)C)cs3)nc2c1C` [Example 3, (2R,6S,13aS,14aR,16aS)-6-[(aminocarbonyl)amino]-N-(cyclopropylsulfonyl)-2-{[8-methyl-2-[4-(1-methylethyl)-1,3-thiazol-2-yl]-7-(methyloxy)-4-quinolinyl]oxy}-5,16-dioxo-1,2,3,6,7,8,9,10,11,13a,14,15,16,16a-tetradecahydrocyclopropa[e]pyrrolo[1,2-a][1,4]diazacyclopentadecine-14a(5H)-carboxamide], the IC50 in experiment [1] and in experiment [2] was less than 0.01 µM throughout.

Turning to `CCN(CC)C(=O)N[C@H]1CCCCC/C=C\[C@@H]2C[C@@]2(C(=O)NS(=O)(=O)C2CC2)NC(=O)[C@@H]2C[C@@H](Oc3cc(-c4nc(C5CC5)cs4)nc4c(Cl)c(OC)ccc34)CN2C1=O` [Example 4, (2R,6S,13aS,14aR,16aS,Z)-2-(8-chloro-2-(4-cyclopropylthiazol-2-yl)-7-methoxyquinolin-4-yloxy)-N-(cyclopropylsulfonyl)-6-(3,3-diethylureido)-5,16-dioxo-1,2,3,5,6,7,8,9,10,11,13a,14,14a,15,16,16a-hexadecahydrocyclopropa[e]pyrrolo[1,2-a][1,4]diazacyclopentadecine-14a-carboxamide], the IC50 in experiment [1] and in experiment [2] was less than 0.01 µM each time.

In the case of `CCN(C(=O)N[C@H]1CCCCC/C=C\[C@@H]2C[C@@]2(C(=O)NS(=O)(=O)C2CC2)NC(=O)[C@@H]2C[C@@H](Oc3cc(-c4nc(C5CC5)cs4)nc4c(C)c(OC)ccc34)CN2C1=O)C(C)C` [Example 5, (2R,6S,13aS,14aR,16aS)-N-(cyclopropylsulfonyl)-2-{[2-(4-cyclopropyl-1,3-thiazol-2-yl)-8-methyl-7-(methyloxy)-4-quinolinyl]oxy}-6-({[ethyl(1-methylethyl)amino]carbonyl}amino)-5,16-dioxo-1,2,3,6,7,8,9,10,11,13a,14,15,16,16a-tetradecahydrocyclopropa[e]pyrrolo[1,2-a][1,4]diazacyclopentadecine-14a(5H)-carboxamide], the IC50 in experiment [1] and in experiment [2] was less than 0.01 µM each time.

On to `COc1ccc2c(O[C@@H]3C[C@H]4C(=O)N[C@]5(C(=O)NS(=O)(=O)C6CC6)C[C@H]5/C=C\CCCCC[C@H](NC(=O)N(C)C)C(=O)N4C3)cc(-c3nc(C4CC4)cs3)nc2c1C` [Example 6, (2R,6S,13aS,14aR,16aS)-N-(cyclopropylsulfonyl)-2-{[2-(4-cyclopropyl-1,3-thiazol-2-yl)-8-methyl-7-(methyloxy)-4-quinolinyl]oxy}-6-{[(dimethylamino)carbonyl]amino}-5,16-dioxo-1,2,3,6,7,8,9,10,11,13a,14,15,16,16a-tetradecahydrocyclopropa[e]pyrrolo[1,2-a][1,4]diazacyclopentadecine-14a(5H)-carboxamide], for which the IC50 in experiment [1] and in experiment [2] was less than 0.01 µM in each case.

Take `COc1ccc2c(O[C@@H]3C[C@H]4C(=O)N[C@]5(C(=O)NS(=O)(=O)C6CC6)C[C@H]5/C=C\CCCCC[C@H](NC(=O)N(C)C(C)C)C(=O)N4C3)cc(-c3nc(C4CC4)cs3)nc2c1C` [Example 7, (2R,6S,13aS,14aR,16aS)-N-(cyclopropylsulfonyl)-2-{[2-(4-cyclopropyl-1,3-thiazol-2-yl)-8-methyl-7-(methyloxy)-4-quinolinyl]oxy}-6-({[methyl(1-methylethyl)amino]carbonyl}amino)-5,16-dioxo-1,2,3,6,7,8,9,10,11,13a,14,15,16,16a-tetradecahydrocyclopropa[e]pyrrolo[1,2-a][1,4]diazacyclopentadecine-14a(5H)-carboxamide]: the IC50 in experiment [1] and in experiment [2] was less than 0.01 µM throughout.

As to `COc1ccc2c(O[C@@H]3C[C@H]4C(=O)N[C@]5(C(=O)NS(=O)(=O)C6CC6)C[C@H]5/C=C\CCCCC[C@H](NC(=O)N(C(C)C)C(C)C)C(=O)N4C3)cc(-c3nc(C4CC4)cs3)nc2c1C` [Example 8, (2R,6S,13aS,14aR,16aS)-6-({[bis(1-methylethyl)amino]carbonyl}amino)-N-(cyclopropylsulfonyl)-2-{[2-(4-cyclopropyl-1,3-thiazol-2-yl)-8-methyl-7-(methyloxy)-4-quinolinyl]oxy}-5,16-dioxo-1,2,3,6,7,8,9,10,11,13a,14,15,16,16a-tetradecahydrocyclopropa[e]pyrrolo[1,2-a][1,4]diazacyclopentadecine-14a(5H)-carboxamide], the half-maximal inhibitory concentration (IC50) in experiment [1] and in experiment [2] was less than 0.01 µM in each case.

Consider `COc1ccc2c(O[C@@H]3C[C@H]4C(=O)N[C@]5(C(=O)NS(=O)(=O)C6CC6)C[C@H]5/C=C\CCCCC[C@H](NC(=O)N(C)C(C)(C)C)C(=O)N4C3)cc(-c3nc(C4CC4)cs3)nc2c1C` [Example 9, (2R,6S,13aS,14aR,16aS)-N-(cyclopropylsulfonyl)-2-{[2-(4-cyclopropyl-1,3-thiazol-2-yl)-8-methyl-7-(methyloxy)-4-quinolinyl]oxy}-6-({[(1,1-dimethylethyl)(methyl)amino]carbonyl}amino)-5,16-dioxo-1,2,3,6,7,8,9,10,11,13a,14,15,16,16a-tetradecahydrocyclopropa[e]pyrrolo[1,2-a][1,4]diazacyclopentadecine-14a(5H)-carboxamide], for which the 50% inhibitory concentration (IC50) in experiment [1] and in experiment [2] was less than 0.01 µM each time.

In the case of `COc1ccc2c(O[C@@H]3C[C@H]4C(=O)N[C@]5(C(=O)NS(=O)(=O)C6CC6)C[C@H]5/C=C\CCCCC[C@H](NC(=O)N5C[C@@H](C)O[C@@H](C)C5)C(=O)N4C3)cc(-c3nc(C(C)C)cs3)nc2c1C` [Example 11, (2R,6S,13aS,14aR,16aS)-N-(cyclopropylsulfonyl)-6-({[(2R,6S)-2,6-dimethyl-4-morpholinyl]carbonyl}amino)-2-{[8-methyl-2-[4-(1-methylethyl)-1,3-thiazol-2-yl]-7-(methyloxy)-4-quinolinyl]oxy}-5,16-dioxo-1,2,3,6,7,8,9,10,11,13a,14,15,16,16a-tetradecahydrocyclopropa[e]pyrrolo[1,2-a][1,4]diazacyclopentadecine-14a(5H)-carboxamide], the IC50 in experiment [1] and in experiment [2] was less than 0.01 µM each time.

The record behind these values is US20100196321A1, “COMPOUNDS” (GLAXOSMITHKLINE LLC, priority 2009, published 2010).
